The source made the active and inactive calls.
How the values were obtained:
[1] = target: T1, Histone-lysine N-methyltransferase NSD2 (Homo sapiens, UniProt O96028); type: biochemical
T1 sequence (O96028 whole entry): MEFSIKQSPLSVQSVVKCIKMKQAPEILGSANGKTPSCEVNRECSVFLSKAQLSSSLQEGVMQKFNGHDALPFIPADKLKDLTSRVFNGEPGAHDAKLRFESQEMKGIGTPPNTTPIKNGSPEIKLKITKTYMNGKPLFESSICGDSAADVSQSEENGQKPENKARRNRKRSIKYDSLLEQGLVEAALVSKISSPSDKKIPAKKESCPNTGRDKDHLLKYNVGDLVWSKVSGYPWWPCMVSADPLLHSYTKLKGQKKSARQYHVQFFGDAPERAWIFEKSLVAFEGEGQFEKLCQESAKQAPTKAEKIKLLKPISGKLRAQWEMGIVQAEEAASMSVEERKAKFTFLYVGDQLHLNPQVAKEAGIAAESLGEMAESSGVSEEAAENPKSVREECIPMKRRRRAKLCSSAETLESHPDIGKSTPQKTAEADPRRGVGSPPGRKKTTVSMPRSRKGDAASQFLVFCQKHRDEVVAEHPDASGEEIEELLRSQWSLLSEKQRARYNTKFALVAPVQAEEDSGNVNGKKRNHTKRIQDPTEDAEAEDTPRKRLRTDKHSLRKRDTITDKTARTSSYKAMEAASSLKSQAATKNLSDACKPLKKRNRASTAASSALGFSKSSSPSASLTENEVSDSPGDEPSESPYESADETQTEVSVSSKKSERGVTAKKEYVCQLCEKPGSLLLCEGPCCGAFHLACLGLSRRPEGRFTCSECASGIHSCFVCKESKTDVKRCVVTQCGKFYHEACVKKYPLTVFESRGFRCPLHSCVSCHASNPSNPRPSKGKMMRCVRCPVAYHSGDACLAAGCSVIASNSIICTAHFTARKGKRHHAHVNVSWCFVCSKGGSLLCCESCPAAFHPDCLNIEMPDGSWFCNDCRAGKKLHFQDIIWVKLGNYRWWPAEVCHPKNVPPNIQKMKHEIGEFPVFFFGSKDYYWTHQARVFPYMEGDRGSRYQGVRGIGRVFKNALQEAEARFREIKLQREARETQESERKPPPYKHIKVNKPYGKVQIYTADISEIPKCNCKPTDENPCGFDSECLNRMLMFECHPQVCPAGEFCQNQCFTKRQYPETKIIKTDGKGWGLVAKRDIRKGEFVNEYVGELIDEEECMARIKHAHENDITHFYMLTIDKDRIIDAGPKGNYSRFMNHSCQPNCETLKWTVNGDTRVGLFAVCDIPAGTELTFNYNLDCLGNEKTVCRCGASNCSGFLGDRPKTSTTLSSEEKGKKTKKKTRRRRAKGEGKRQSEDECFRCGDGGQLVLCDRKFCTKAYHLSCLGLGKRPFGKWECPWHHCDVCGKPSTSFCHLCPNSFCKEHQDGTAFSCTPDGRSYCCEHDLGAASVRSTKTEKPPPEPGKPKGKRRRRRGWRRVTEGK

[2] = Luminescence Cell-Based Dose Confirmation HTS to Identify Activators of 5'UTR Stem-Loop Driven Alpha-Synuclein mRNA Translation in H4 Neuroglioblastoma Cells. [Related pubchem assays: 1829 (Project Summary), 1814 (Primary HTS)]; type: functional
[3] = Luminescence Cell-Based Dose Response HTS to Identify Activators of Luciferase Translation or Activity in H4 […] Cells. [Related pubchem assays: 1829 (Project Summary), 1814 (Primary HTS)]; type: functional
H4 = test: Luminescence Cell-Based Dose Response HTS to Identify Activators of 5'UTR Stem-Loop Driven Prion Protein mRNA Translation in H4 Neuroglioblastoma Cells. [Related pubchem assays: 1829 (Project Summary), 1814 (Primary HTS)]; type: functional; conditions: Homo sapiens
Cytochrome P450 2C19 = Cytochrome P450 2C19 (Homo sapiens, UniProt P33261); test: Cytochrome panel assay with activity outcomes. Panel member name: p450-cyp2c19 Compounds with AC50 equal or less than 10 uM are considered active; type: functional; conditions: read-out: AC50
Chain of Cytochrome P450 2C19 (P33261 whole entry): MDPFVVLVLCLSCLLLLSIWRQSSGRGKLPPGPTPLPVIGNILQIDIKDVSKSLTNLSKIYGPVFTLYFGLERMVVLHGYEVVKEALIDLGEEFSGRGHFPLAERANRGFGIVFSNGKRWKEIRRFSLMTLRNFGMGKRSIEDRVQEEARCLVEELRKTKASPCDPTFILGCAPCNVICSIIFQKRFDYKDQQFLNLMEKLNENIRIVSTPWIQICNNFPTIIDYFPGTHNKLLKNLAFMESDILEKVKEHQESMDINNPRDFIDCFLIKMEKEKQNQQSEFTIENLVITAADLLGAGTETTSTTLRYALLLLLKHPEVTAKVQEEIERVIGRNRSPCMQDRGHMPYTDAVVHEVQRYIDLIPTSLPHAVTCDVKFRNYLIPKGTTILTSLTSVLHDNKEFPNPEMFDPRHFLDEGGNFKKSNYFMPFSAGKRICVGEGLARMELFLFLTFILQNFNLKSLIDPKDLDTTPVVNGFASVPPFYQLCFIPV

[4] = target: Induced myeloid leukemia cell differentiation protein Mcl-1 (Homo sapiens, UniProt Q07820); type: functional
Chain of Induced myeloid leukemia cell differentiation protein Mcl-1 (Q07820 whole entry): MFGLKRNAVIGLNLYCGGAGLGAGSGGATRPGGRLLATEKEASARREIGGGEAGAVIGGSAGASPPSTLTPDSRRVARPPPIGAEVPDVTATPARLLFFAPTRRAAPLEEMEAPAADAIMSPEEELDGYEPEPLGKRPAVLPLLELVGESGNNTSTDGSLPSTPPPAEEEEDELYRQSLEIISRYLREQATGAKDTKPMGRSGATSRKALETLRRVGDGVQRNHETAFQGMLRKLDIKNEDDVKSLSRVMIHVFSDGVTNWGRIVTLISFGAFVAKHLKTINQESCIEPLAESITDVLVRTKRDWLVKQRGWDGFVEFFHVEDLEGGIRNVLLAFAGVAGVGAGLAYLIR

[5] = target: T2, Replicative DNA helicase DnaB (Mycobacterium tuberculosis, UniProt P9WMR3); test: DnaB intein splicing inhibitors, dose response, biochemical, cell-free fluorescence (AID 449749); type: functional
T2 sequence (P9WMR3 whole entry): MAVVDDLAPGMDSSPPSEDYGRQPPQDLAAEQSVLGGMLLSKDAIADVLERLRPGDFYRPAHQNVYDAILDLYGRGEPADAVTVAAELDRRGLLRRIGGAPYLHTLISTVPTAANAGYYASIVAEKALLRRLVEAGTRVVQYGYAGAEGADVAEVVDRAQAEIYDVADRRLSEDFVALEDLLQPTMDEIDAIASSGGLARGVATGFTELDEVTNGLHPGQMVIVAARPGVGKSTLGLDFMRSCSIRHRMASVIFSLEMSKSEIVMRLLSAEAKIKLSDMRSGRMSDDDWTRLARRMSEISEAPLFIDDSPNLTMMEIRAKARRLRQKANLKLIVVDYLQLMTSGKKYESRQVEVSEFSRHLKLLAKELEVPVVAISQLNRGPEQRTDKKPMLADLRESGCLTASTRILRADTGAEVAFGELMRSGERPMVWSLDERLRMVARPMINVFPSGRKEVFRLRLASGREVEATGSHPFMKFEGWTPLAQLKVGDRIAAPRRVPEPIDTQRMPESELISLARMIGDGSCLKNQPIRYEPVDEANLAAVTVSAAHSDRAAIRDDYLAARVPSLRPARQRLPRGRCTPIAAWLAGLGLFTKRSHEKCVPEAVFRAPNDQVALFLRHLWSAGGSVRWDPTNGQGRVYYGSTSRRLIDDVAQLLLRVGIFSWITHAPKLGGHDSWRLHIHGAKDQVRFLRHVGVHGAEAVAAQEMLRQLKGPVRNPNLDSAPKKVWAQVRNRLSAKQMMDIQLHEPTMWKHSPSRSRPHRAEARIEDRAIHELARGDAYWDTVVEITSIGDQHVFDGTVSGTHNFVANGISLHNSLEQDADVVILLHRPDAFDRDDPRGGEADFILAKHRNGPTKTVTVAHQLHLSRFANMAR

Protein RecA = target: T3, Protein RecA (Mycobacterium tuberculosis, UniProt P9WHJ3); test: Fluorescence Cell-Free Homogeneous Dose Retest to Identify Inhibitors of RecA-Intein Splicing Activity. [Related pubchem assays (depositor defined):AID2097, AID2223, AID489010, AID492950]; type: functional
T3 sequence (P9WHJ3 whole entry): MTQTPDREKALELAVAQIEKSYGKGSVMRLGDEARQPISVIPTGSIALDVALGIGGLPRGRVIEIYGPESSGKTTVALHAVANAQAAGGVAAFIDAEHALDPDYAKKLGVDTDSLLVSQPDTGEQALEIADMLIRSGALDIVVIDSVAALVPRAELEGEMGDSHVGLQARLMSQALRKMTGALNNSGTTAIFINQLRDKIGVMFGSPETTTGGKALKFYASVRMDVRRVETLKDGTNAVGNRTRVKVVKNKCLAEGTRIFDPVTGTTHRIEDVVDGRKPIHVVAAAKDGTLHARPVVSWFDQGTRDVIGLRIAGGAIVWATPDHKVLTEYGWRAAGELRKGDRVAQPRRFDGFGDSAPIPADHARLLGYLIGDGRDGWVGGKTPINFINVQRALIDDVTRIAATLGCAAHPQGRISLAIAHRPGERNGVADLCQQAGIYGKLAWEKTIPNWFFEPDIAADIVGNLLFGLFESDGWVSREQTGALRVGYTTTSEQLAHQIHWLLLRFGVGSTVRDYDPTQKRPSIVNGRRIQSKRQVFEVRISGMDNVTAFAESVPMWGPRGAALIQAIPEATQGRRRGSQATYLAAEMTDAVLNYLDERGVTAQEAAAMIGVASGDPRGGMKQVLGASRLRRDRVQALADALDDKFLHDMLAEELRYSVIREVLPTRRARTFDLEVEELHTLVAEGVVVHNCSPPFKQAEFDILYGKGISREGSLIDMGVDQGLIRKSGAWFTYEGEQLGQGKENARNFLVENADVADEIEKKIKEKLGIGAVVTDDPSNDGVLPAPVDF

Nonstructural protein 1 = Nonstructural protein 1 (Influenza A virus, UniProt Q194T2); type: functional, Influenza A virus (A/California/07/2009(H1N1))
Chain of Nonstructural protein 1 (Q194T2 whole entry): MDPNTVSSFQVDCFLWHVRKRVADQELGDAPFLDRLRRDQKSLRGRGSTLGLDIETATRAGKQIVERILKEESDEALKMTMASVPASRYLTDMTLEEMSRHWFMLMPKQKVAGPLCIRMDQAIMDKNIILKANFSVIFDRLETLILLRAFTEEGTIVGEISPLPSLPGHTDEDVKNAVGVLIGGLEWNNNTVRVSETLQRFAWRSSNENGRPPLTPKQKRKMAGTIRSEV

Vero = test: cells; type: functional; conditions: Chlorocebus sabaeus
INS1 = test: INS-1E survival protection against cytokine death – cell-based, luminescence, retest, dose response (AID 449756); type: functional; conditions: Rattus norvegicus;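 further: cell death triggered by IL-1 beta plus TNF-alpha plus IFN-gamma mixture; protective hits raise ATP signal compared with cytokine alone wells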
[6] = Trypanosoma cruzi growth suppression in host cells – NIH3T3 host cells, beta-gal luminescence, confirmation (AID 2044); type: functional, cell-based;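 further: intracellular parasites grown in NIH/3T3 mouse fibroblasts as host cells; luminescent beta-galactosidase reporter signal from transgenic T. cruzi replicating inside host cells; inhibitors lower the luminescence signal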
[7] = NIH3T3 cell viability loss – ATP luminescence, mouse fibroblasts, counter-screen, dose response (AID 2010); type: functional, cell-based;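 further: cells exposed to compound for about 90 hours before reading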
[8] = intracellular Trypanosoma cruzi inhibitors in host cells – cell-based, plate reader, cherry-pick samples, set 3, dose response (AID 651818); type: functional;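 further: compounds incubated with infected cells for about four days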
[9] = HIV-1 AD8 envelope cell-cell fusion blockers – cherry-pick, dose response (AID 652062); type: functional, cell-based;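 further: luciferase signal from cell-cell fusion driven by HIV-1 clade B AD8 Env; potency is for inhibitors of fusion seen as a drop in luminescence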
[10] = tested on: Streptococcus sp. 'group A'; test: Streptococcus pyogenes SK(-)GAS viability under kanamycin – luminescence, BacTiterGlo, confirmation, counter-screen for streptokinase expression inhibitor project, dose response (AID 1900); type: functional, organism-based
Streptococcus = test: GAS UMAA2166 growth inhibition – luminescence, BacTiterGlo, counter-screen for streptokinase expression inhibitor project, dose response (AID 1915); type: functional, organism-based;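 further: potency for reduction of bacterial viability or growth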

## CCN(CC)c1ccc(CN2CC=C(c3ccc(F)cc3)CC2)cc1
[1]
  AC50: > 20 µM (inactive)

## O=C(NCC1CCCO1)c1cc2c(s1)CCC2 (stereo unspecified)
[2]
  EC50: 20.3 µM (active)
[3]
  EC50: 18.7 µM (active)
H4
  EC50: 50.9 µM (active)

## O=C1NC(=S)N(C2CC2)C(=O)/C1=C/Nc1ccc2c(c1)OCO2
[2]
  EC50: 95.4 µM (active)
[3]
  EC50: 13.3 µM (active)
H4
  EC50: 18.7 µM (active)

## CC(=O)c1ccc(-n2c(CCC(=O)O)ccc2-c2cccs2)cc1
Cytochrome P450 2C19
  AC50: 11.2 µM (inconclusive)
[4]
  IC50: 9.23 µM (not active)

## COc1ccc(C(=O)C[n+]2ccc(-c3nnc4n3CCCCC4)cc2)cc1
[4]
  IC50: > 54 µM (active)

## Cc1ccc(-n2nc(C)c3c2OC(N)=C(C#N)C3c2ccc(C)o2)cc1 (stereo unspecified)
[5]
  AC50: 5.9 µM (active)
Protein RecA
  EC50: 25.7 µM (inconclusive)
Nonstructural protein 1
  IC50: 24.9 µM (active)

## CCN1CCN(Cc2ccc(NC(=O)c3cc(NC(=O)N4CCNC4=O)cc(OC)c3)cc2C(F)(F)F)CC1
Vero
  CC50: > 25 µM (active)

## CCCN1C(=O)S/C(=C/c2ccc(N3CCOCC3)o2)C1=O
Vero
  CC50: > 25 µM (active)

## C/C(=C\c1ccco1)C1Nc2cccc3cccc(c23)N1
[4]
  IC50: 8.61 µM (active)

## Cc1[nH]c2ccccc2c1CN1CCC(Cc2ccccc2)CC1
Vero
  CC50: > 25 µM (active)
INS1
  AC50: 3.46 µM (active)
[6]
  EC50: 0.212 µM (active)
[7]
  EC50: 10.9 µM (active)

## C[C@@H]1CN([C@H](C)CO)C(=O)Cc2cc(NS(=O)(=O)c3ccc(Cl)cc3)ccc2O[C@H]1CN(C)Cc1ccc2c(c1)OCO2
[8]
  AC50: 3.53 µM (active)

## Cc1noc(C)c1NC(=O)Nc1cccc2c1O[C@@H](CN(C)S(C)(=O)=O)[C@@H](C)CN([C@@H](C)CO)C2=O
[8]
  AC50: 1.01 µM (active)

## C[C@H]1CN([C@@H](C)CO)C(=O)Cc2cc(NC(=O)Nc3ccc(C(F)(F)F)cc3)ccc2O[C@H]1CN(C)Cc1ccccc1
[8]
  AC50: 3.08 µM (active)

## C[C@@H]1CCCCO[C@H](CN(C)Cc2ccc(Cl)c(Cl)c2)[C@@H](C)CN([C@H](C)CO)C(=O)c2cc(NC(=O)Nc3ccc4c(c3)OCO4)ccc2O1
[8]
  AC50: 4.02 µM (active)

## C[C@H](CO)N1C[C@H](C)[C@@H](CN(C)C(=O)Nc2cccc3ccccc23)Oc2c(NC(=O)Nc3ccc4c(c3)OCO4)cccc2C1=O
[8]
  AC50: 6.85 µM (active)

## C[C@H](CO)N1C[C@H](C)[C@@H](CN(C)Cc2ccccc2)Oc2c(NC(=O)CCCCCC(=O)Nc3ccccc3N)cccc2C1=O
[8]
  AC50: 3.24 µM (active)

## C[C@@H]1CN([C@@H](C)CO)C(=O)c2cccc(NC(=O)Nc3ccc(C(F)(F)F)cc3)c2O[C@@H]1CN(C)Cc1ccc(Oc2ccccc2)cc1
[8]
  AC50: 6.09 µM (active)

## C[C@@H]1CCCCO[C@@H](CN(C)Cc2ccc(Cl)c(Cl)c2)[C@@H](C)CN([C@H](C)CO)C(=O)c2cc(NC(=O)Nc3ccc(F)cc3)ccc2O1
[8]
  AC50: 2.38 µM (active)

## C[C@H](CO)N1C[C@H](C)[C@@H](CN(C)Cc2ccc(C(F)(F)F)cc2)Oc2c(NS(=O)(=O)c3ccccc3)cccc2C1=O
[8]
  AC50: 8.8 µM (active)

## COc1ccc(NC(=O)Nc2cccc3c2O[C@H](CN(C)Cc2ccc(C(=O)Nc4ccccc4N)cc2)[C@@H](C)CN([C@@H](C)CO)C3=O)cc1
[8]
  AC50: 1.92 µM (active)

## N#C/C(=N\Nc1ccccc1)C(=N)N1CCCCCC1
[2]
  EC50: 0.132 µM (active)
H4
  EC50: > 120 µM (not active)

## C#CCn1c(=O)c2c(ncn2C)n(C)c1=O
[9]
  AC50: 43.1 µM (active)

## O=c1c(/C=N/c2cc(O)nc(S)n2)coc2c1ccc1ccccc12
[10]
  EC50: 0.752 µM (active)
[4]
  IC50: 4.68 µM (active)
Streptococcus
  EC50: 20.3 µM (active)

— ChEMBL document CHEMBL1201862, “PubChem BioAssay data set” (2004)
